Results: patent US20060128675A1, “Method for monitoring the effectiveness of teracycline in the treatment of asthma” (priority 2002, published 2006)

Assays:
[1] = system: IgE production by PBMC from non asthmatic subjects; experiment: IgE production in vitro by anti-CD40 mAb + rhIL-4 stimulated PBMC from non asthmatic subjects; format: cell-based, human; conditions: anti-CD40/rhIL-4
Method: (§1) PBMC were separated from blood on a Ficoll-Paque (Pharmacia, Piscataway, N.J.) gradient (density 1.077). The PBMC were carefully removed using a transfer pipette (VWR Scientific, San Francisco, Calif.). Cells were washed twice in RPMI-1640 medium (GIBCO/BRL, Grand Island, N.Y.), resuspended in RPMI (3 ml), and counted on a hemocytometer (Fisher Scientific, Springfield, N.J.). Viability was >98%, as judged by trypan blue exclusion.
Studies of IgE responses induced in vitro were carried out according to the method of Sampson and Buckley in J. Immunol 1981, 127: 829-834. […]
For the in vitro quantitative determination of IgE content in cell culture supernatants, solid phase sandwich enzyme linked immunosorbent assays (ELISAs) were performed using IgE ELISA Test Kits (Abexon Trend, Ramsey, Minn.). […] Specimens were analyzed in duplicate and a standard curve was derived from known concentrations of IgE. Plates were read using an automated microplate reader (Model ELX800) (Bio-Tek Instruments, Inc., Winooski, Vt.), with a 450-nm measurement filter. […]

[2] = system: IgE production by stimulated PBMC from asthmatic subjects; experiment: IgE production in vitro by anti-CD40 mAb + rhIL-4 stimulated PBMC from asthmatic subjects (IgE ELISA of supernatants); format: cell-based, human; conditions: 10 day culture; for IgE: anti-CD40 mAb 1 ug/ml + rhIL-4 200 U/ml, ± SE, 5 asthmatic subjects; for inhibition at 0.1 µg/mL / inhibition at 1 µg/mL / inhibition at 10 µg/mL: Homo sapiens, PBMC, 240 h, versus anti-CD40 + rhIL-4 without treatment
Method: as §1
Studies of IgE responses induced in vitro were carried out according to the method of Sampson and Buckley in J. Immunol 1981, 127: 829-834. Briefly, PBMC (1.5×10^6 in 1 ml) were cultured +anti-CD40 mAb (1 ug/ml) (BD Pharmingen, San Diego, Calif.), ± recombinant human interleukin-4 (rhIL-4) (200 U/ml) (Genzyme Corp., Boston, Mass.), in the presence or absence of varying concentrations of either minocycline (Lederle Parenterals Inc., Carolina, Puerto Rico) or doxycycline (American Pharmaceutical Partner Inc., Schaumburg, Ill.), 0.1, 1.0, 10 ug/ml) for 0, 3, and 10 days at 37° C. in complete medium in a humidified 4% CO2 atmosphere. Cell viability was >98%, as judged by trypan blue exclusion, on day 10.
Antibiotics were reconstituted in sterile dH2O, according to manufacturer's recommendations. Complete medium contained RPMI-1640 (Fisher Scientific) and was supplemented with N-2-hydroxyethylpiperazine-N′-2-ethanesulfonic acid buffer (HEPES) (25 mM) (Fisher Scientific), penicillin (100 U/ml) (GIBCO/BRL), streptomycin (100 ug/ml) (Eli Lilly and Co., Indianapolis, Ind.), L-glutamine (2 mM) (GIBCO/BRL), and 10% Fetal Calf Serum (FCS) (GIB CO/BRL). The concentration of rhIL-4 in culture was within 1 bog of physiologic relevance (<100 U/ml), according to bioassay data provided by supplier.
For the in vitro quantitative determination of IgE content in cell culture supernatants, solid phase sandwich enzyme linked immunosorbent assays (ELISAs) were performed using IgE ELISA Test Kits (Abexon Trend, Ramsey, Minn.). All ELISAs were performed according to the manufacturer's recommended procedure. Specimens were analyzed in duplicate and a standard curve was derived from known concentrations of IgE. Plates were read using an automated microplate reader (Model ELX800) (Bio-Tek Instruments, Inc., Winooski, Vt.), with a 450-nm measurement filter. Optical densities were converted to IU/ml and/or ng/ml. (1 IU=2.4 ng/IgE protein).

[3] = system: rheumatoid arthritis (RA) patients; conditions: mild and moderate RA patients; cited from earlier work

SMILES	effect on IgE responses of PBMC of non asthmatic donors [1]	IgE ([2]; 0.1 ug/ml)	IgE ([2]; 1.0 ug/ml)	IgE ([2]; 10 ug/ml)	inhibition at 0.1 µg/mL ([2]; 0.1 ug/ml)	inhibition at 1 µg/mL ([2]; 1.0 ug/ml)	inhibition at 10 µg/mL ([2]; 10 ug/ml)	side effects [3]
C[C@H]1c2cccc(O)c2C(=O)C2=C(O)[C@]3(O)C(=O)C(C(N)=O)=C(O)[C@@H](N(C)C)[C@@H]3[C@@H](O)[C@@H]21 [doxycycline]	no effect	20 ± 9 ng/mL	14 ± 7 ng/mL	5 ± 2 ng/mL	29%	50%	83%	–
CN(C)c1ccc(O)c2c1C[C@H]1C[C@H]3[C@H](N(C)C)C(O)=C(C(N)=O)C(=O)[C@@]3(O)C(O)=C1C2=O [minocycline]	no effect	16 ± 5 ng/mL	18 ± 7 ng/mL	5 ± 2 ng/mL	43%	36%	83%	no side effects
